Experimental data as given in patent US20230203025A1, “ENHANCERS OF PARTICULATE GUANYLYL CYCLASE RECEPTOR A” (Mayo Foundation for Medical Education and Research, priority 2020, published 2023).

What was measured:
pGC-A = biological target: T1, pGC-A (Homo sapiens, UniProt P16066); test: cGMP production by HTRF in HEK293 cells overexpressing pGC-A; assay type: cell-based
T1 construct: expressed in transfected cells; host or cells: HEK293
T1 sequence (P16066 33-1061): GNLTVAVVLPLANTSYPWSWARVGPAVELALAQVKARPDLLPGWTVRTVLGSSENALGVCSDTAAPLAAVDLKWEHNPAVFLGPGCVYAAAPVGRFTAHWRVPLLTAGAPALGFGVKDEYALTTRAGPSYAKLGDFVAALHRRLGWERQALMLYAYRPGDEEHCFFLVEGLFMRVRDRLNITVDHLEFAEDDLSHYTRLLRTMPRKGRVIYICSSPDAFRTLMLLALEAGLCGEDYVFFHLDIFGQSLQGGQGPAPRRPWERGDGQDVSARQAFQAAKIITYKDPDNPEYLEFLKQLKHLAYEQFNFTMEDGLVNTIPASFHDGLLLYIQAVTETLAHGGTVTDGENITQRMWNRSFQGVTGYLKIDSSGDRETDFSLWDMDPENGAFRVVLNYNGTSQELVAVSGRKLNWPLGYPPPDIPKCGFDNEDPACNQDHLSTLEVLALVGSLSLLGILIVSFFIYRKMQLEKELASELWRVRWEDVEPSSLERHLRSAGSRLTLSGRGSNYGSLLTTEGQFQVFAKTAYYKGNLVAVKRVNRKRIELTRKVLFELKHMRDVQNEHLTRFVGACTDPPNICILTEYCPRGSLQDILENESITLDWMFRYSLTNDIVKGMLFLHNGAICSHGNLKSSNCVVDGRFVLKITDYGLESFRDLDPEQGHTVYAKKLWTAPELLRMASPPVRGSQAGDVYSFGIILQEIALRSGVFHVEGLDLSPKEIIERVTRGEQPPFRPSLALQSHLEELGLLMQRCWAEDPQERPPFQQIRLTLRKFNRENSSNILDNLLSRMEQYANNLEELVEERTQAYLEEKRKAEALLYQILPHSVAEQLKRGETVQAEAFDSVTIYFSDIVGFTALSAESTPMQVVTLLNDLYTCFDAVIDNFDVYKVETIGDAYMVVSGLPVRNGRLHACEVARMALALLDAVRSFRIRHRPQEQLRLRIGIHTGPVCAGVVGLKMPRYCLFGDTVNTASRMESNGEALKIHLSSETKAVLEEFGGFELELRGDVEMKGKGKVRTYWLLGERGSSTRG
T1 sequence (P01160 124-151 partner limits assumed): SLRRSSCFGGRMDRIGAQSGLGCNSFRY
Experimental: Assay details: 20 nL of 10 μM test compound in DMSO was added to columns 5-48 of 1536 well white high base screening plates (Corning, New York, N.Y.) cells using 550 ECHO acoustic dispenser (Labcyte, San Jose, Calif.). […] HEK293 cells overexpressing GC-A were resuspended in assay media (OptimMem media containing 2% Heat-inactivated Fetal bovine serum and L-glutamine) at a density of 6×10^5 cells/mL and 2 μL were plated in screening plates (1200 cells/well) in suspension using a Bioraptr 2. Plates were spun at 1000 rpm for 1 min and incubated for 30 min at room temperature. 1.5 μL d2-labled cGMP followed by 1.5 uL Eu^3+ cryptate-labeled anti-cGMP cGMP detection kit (CiBio; #62GM2PEC) prepared according to manufacturer's protocol were added to all wells using a Bioraptr 2 and TR-FRET signal was detected on an EnVision detector (PerkinElmer).

LogD = assay type: physicochemical; conditions: pH 7.4
plasma stability, human = assay type: in vitro ADME
plasma stability, mouse = assay type: in vitro ADME
[1] = hepatic microsomal stability, human; assay type: in vitro ADME
[2] = pharmacokinetics after IV and PO dosing; assay type: in vivo, mouse; conditions: plasma
[3] = test system: primary human cardiomyocytes (HCMs); test: cGMP generation in primary human cardiomyocytes; assay type: cell-based
[4] = test system: primary human cardiomyocytes (HCMs); test: inhibition of TGF-beta 1 induced human cardiomyocyte hypertrophy; assay type: cell-based; conditions: TGF-β1 5 ng/mL
Experimental: Methods (Inhibition of Human Cardiac Hypertrophy In Vitro): primary human cardiomyocytes (HCMs) were grown in growth media to 50% confluence and then were subjected to serum starvation for 24 hrs. After that, 5 ng/mL of the cytokine TGFβ-1 (R&D Systems) was added to the media for 48 hrs to induce HCM hypertrophy. […] Normal cell buffer served as a vehicle only control, where TGFP-1 alone served as the positive control. Analysis for cell surface area (μm^2) was performed using the ImageJ software at the end of the study.
Results: to further support the cGMP generation in human primary cells leads to favorable biological GC-A mediated, the anti-hypertrophic effects were assessed of Compound 19 on live HCMs stressed with TGF-β1 (5 ng/mL), using a state-of-the-art live cell imaging platform (IncuCyte System).

CN(C)CCN1CCCC(C(=O)Nc2nc3c(F)cc(F)cc3s2)C1 (centres unmarked) [Compound 19]
Emax (pGC-A; HEK293, cGMP normalized to maximal amount produced by an EC80 concentration of ANP, read-out: Max efficacy): 82% | EC50 (pGC-A; HEK293 pGC-A cells, cGMP HTRF, in the presence of EC20 concentration of ANP): 0.39 µM | cGMP activity in cells expressing pGC-A (pGC-A; in the absence of ANP): devoid of cGMP activity | logD (LogD): 3.04 | Plasma Stability (% remaining at 1 h) (plasma stability, human): 107.4% | Plasma Stability (% remaining at 1 h) (plasma stability, mouse): 109.7% | Hepatic Microsomal Stability (% remaining at 1 h) [1]: 98.2% | clearance ([2]; Mean IV, mouse, 5 mg/kg): 1.22 L/h/kg | Vd ([2]; Mean IV, mouse, 5 mg/kg, read-out: Vdss): 16.8 L/kg | Cmax ([2]; Mean PO, Mouse, 10 mg/kg): 0.605 µg/mL | half-life ([2]; Mean PO, Mouse, 10 mg/kg): 9.13 h | AUC ([2]; Mean PO, Mouse, 10 mg/kg, read-out: Exposure (AUC)): 7.09 µg·h/mL | bioavailability ([2]; Mouse, PO 10 mg/kg vs IV 5 mg/kg): 107% | cGMP generation ([3]; HCMs, 1, 5 or 10 μM compound in the presence of ANP (10^−10 M)): clear increase in cGMP generation | cGMP generation ([3]; HCMs, compound alone at similar dose, no ANP): did not generate cGMP generation | inhibition of HCM hypertrophy ([4]; Compound 19 (1, 5, 10 μM) with ANP 10^−8 M): significant inhibition | inhibition of HCM hypertrophy ([4]; Compound 19 (1, 5, 10 μM) with ANP 10^−10 M): significant inhibition
